The source of these data is ChEMBL document CHEMBL1201862, “PubChem BioAssay data set” (2004).

Among the test systems are PC-3; Malme-3M; UACC-62; LOX IMVI; UACC-257; NCI-H226; HL-60; SK-MEL-2; NCI-H460; HCT-15; SF-539; OVCAR-5; COLO 205; SNB-19; M14; RPMI-8226; OVCAR-3; SK-MEL-5; A498.
What all share (assay): growth of human tumour cells (NCI), 48 h

Each structure is given as a SMILES string.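 Results reflect a 48-hour exposure of cells in 96-well plates to compound at five concentrations. Here, GI50 denotes the concentration required for 50% inhibition of growth.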 Active and inactive are the calls of the source. Rule as the data show it: active = GI50 up to about 1.1 µM and inactive = higher.

Regarding `O=C(NN1C(=O)c2ccccc2C1=O)c1ccccc1Nc1ccccc1C(=O)NN1C(=O)c2ccccc2C1=O`, the GI50 in the assay with PC-3, in the assay with Malme-3M, in the assay with UACC-62, in the assay with LOX IMVI, in the assay on UACC-257 and in the assay on NCI-H226 was > 100 µM (inactive) each time. The GI50 with HL-60 is > 100 µM (inactive); with SK-MEL-2 it was > 100 µM (inactive); in the assay on NCI-H460 it was > 100 µM (inactive); in the assay with HCT-15, greater than 100 µM; in the assay on SF-539, > 100 µM (inactive); in the assay on OVCAR-5, > 100 µM (inactive). Further, the GI50 was > 100 µM (inactive) in the assay with COLO 205; > 100 µM (inactive) with SNB-19; > 100 µM (inactive) with M14; 49.2 µM (inactive) in the assay with RPMI-8226; > 100 µM (inactive) with OVCAR-3; > 100 µM (inactive) in the assay on SK-MEL-5.
For the compound `Cc1cc(C(=C2C=CC(=[N+](C)C)C=C2)c2ccc([N+](C)(C)C)cc2)ccc1N(C)C`, the GI50 in the assay on Malme-3M is 15.8 µM (inactive); in the assay with UACC-62, 5.55 µM (inactive); in the assay on LOX IMVI, 4.79 µM (inactive); in the assay with UACC-257, 12.1 µM (inactive); in the assay with NCI-H226, 16 µM (inactive); in the assay on HL-60, 2.3 µM (inactive). In addition, the GI50 in the assay on SK-MEL-2 is 15.2 µM (inactive); in the assay on NCI-H460, 3.98 µM (inactive); in the assay with HCT-15 it was 33 µM; in the assay with SF-539, 10.8 µM (inactive); with OVCAR-5, 21.9 µM (inactive); with COLO 205 it was 10.1 µM (inactive). The GI50 was 24 µM (inactive) with SNB-19; 18.5 µM (inactive) with A498; 10.4 µM (inactive) in the assay on M14; 2.04 µM (inactive) in the assay on RPMI-8226; 12 µM (inactive) in the assay with OVCAR-3; 11.8 µM (inactive) in the assay on SK-MEL-5.
For the compound `CC(=O)C1CC=C(C)CC1` (stereo not drawn), the GI50 in the assay on Malme-3M, in the assay on UACC-62, in the assay on LOX IMVI, in the assay on UACC-257, in the assay on NCI-H226 and in the assay on HL-60 was > 100 µM (inactive) each time. Also, the GI50 in the assay with SK-MEL-2 is > 100 µM (inactive); in the assay with NCI-H460 it was > 100 µM (inactive); with HCT-15, greater than 100 µM; in the assay with SF-539, > 100 µM (inactive); in the assay on OVCAR-5 it was > 100 µM (inactive); in the assay with COLO 205, > 100 µM (inactive). Moreover, the GI50 in the assay with SNB-19, in the assay with A498, in the assay with M14, in the assay with RPMI-8226, in the assay on OVCAR-3 and in the assay with SK-MEL-5 was > 100 µM (inactive) throughout.
Consider `O=C1C=CC(=O)C2C1Cc1ccccc1C2c1ccccc1` (stereo not drawn), for which the GI50 in the assay with Malme-3M is 59.4 µM (inactive); with UACC-62 it was > 100 µM (inactive); in the assay with LOX IMVI, 41.6 µM (inactive); with UACC-257, 28.1 µM (inactive); in the assay on NCI-H226, 65.5 µM (inactive); in the assay with HL-60, 23 µM (inactive). For the same compound, the GI50 is 27.8 µM (inactive) in the assay on SK-MEL-2; 29.9 µM (inactive) in the assay on NCI-H460; 36.6 µM in the assay on HCT-15; 30.5 µM (inactive) in the assay on SF-539; > 100 µM (inactive) in the assay on OVCAR-5; 19.5 µM (inactive) in the assay on COLO 205. The GI50 in the assay with SNB-19 was > 100 µM (inactive); in the assay with A498, 22.4 µM (inactive); with M14, 42.8 µM (inactive); in the assay with RPMI-8226 it was 22.3 µM (inactive); with OVCAR-3, 29.6 µM (inactive); in the assay on SK-MEL-5 it was 64 µM (inactive).
With `O=C(Nc1ccc(Cl)cc1Cl)C(=O)C(C(=O)c1ccc2ccccc2c1)C1OC(=O)c2ccccc21` (stereo not drawn), the GI50 is > 10 µM (inactive) in the assay with Malme-3M; 9.79 µM (inactive) with UACC-62; 5.19 µM (inactive) in the assay with LOX IMVI; 12.6 µM (inactive) with UACC-257; 1.73 µM (inactive) in the assay on NCI-H226; 2.96 µM (inactive) in the assay with HL-60. Further, the GI50 with SK-MEL-2 is 13.7 µM (inactive); in the assay on NCI-H460, 4.33 µM (inactive); with HCT-15, 11.5 µM; in the assay on SF-539, 2.68 µM (inactive); in the assay on OVCAR-5, 4.65 µM (inactive); in the assay with COLO 205, 9.46 µM (inactive). The GI50 was 5.78 µM (inactive) in the assay on SNB-19; 6.7 µM (inactive) in the assay with A498; 13.4 µM (inactive) in the assay on M14; 4.06 µM (inactive) with RPMI-8226; 10.7 µM (inactive) in the assay with OVCAR-3; 9.73 µM (inactive) in the assay on SK-MEL-5.
With `CC(C)Sc1nncc(/C(N)=N/O)n1`, the GI50 in the assay with PC-3, with Malme-3M, in the assay on UACC-62, in the assay with LOX IMVI, with UACC-257 and with NCI-H226 was > 100 µM (inactive) each time. Also, the GI50 in the assay with NCI-H460 is > 100 µM (inactive); in the assay on HCT-15, greater than 100 µM; with SF-539 it was > 100 µM (inactive); in the assay on OVCAR-5, > 100 µM (inactive); with COLO 205 it was > 100 µM (inactive); with SNB-19, > 100 µM (inactive). For the same compound, the GI50 in the assay with A498, in the assay with M14, in the assay on RPMI-8226, in the assay on OVCAR-3 and in the assay on SK-MEL-5 was > 100 µM (inactive) throughout.
As for `CC1=C(C(=O)Nc2ccccc2C)C(c2ccc([N+](=O)[O-])cc2)C(C(=O)Nc2ccccc2C)=C(C)N1`, the GI50 in the assay with Malme-3M is 42.7 µM (inactive); with UACC-62, 43.9 µM (inactive); with LOX IMVI, 43.4 µM (inactive); in the assay with UACC-257, 55.3 µM (inactive); in the assay with NCI-H226, > 100 µM (inactive); in the assay on HL-60 it was 19.8 µM (inactive). Also, the GI50 with SK-MEL-2 is 38.2 µM (inactive); with NCI-H460, 44.9 µM (inactive); with HCT-15, 56.5 µM; with SF-539 it was 53.6 µM (inactive); with OVCAR-5, > 100 µM (inactive); with COLO 205 it was 29.9 µM (inactive). Also, the GI50 is 22.8 µM (inactive) in the assay with SNB-19; 14 µM (inactive) in the assay with A498; 39.9 µM (inactive) in the assay with M14; 28.6 µM (inactive) in the assay on RPMI-8226; 40.1 µM (inactive) in the assay on OVCAR-3; 11.3 µM (inactive) in the assay with SK-MEL-5.
`NCCOc1ccc(/C(=C(/Cl)c2ccccc2)c2ccccc2)cc1`: the GI50 with Malme-3M is 9.27 µM (inactive); in the assay with UACC-62, 11 µM (inactive); with LOX IMVI, 4.05 µM (inactive); in the assay on UACC-257 it was 10.8 µM (inactive); in the assay with NCI-H226, 18.7 µM (inactive); in the assay with HL-60, 3.74 µM (inactive). The GI50 in the assay on SK-MEL-2 was 14.4 µM (inactive); in the assay with NCI-H460 it was 7.14 µM (inactive); in the assay on HCT-15, 6.55 µM; with SF-539, 15.3 µM (inactive); in the assay with OVCAR-5, 16.7 µM (inactive); with COLO 205 it was 1.89 µM (inactive). Besides, the GI50 was 14.4 µM (inactive) with SNB-19; 19.1 µM (inactive) in the assay with A498; 2.26 µM (inactive) in the assay with M14; 3.17 µM (inactive) with RPMI-8226; 12.4 µM (inactive) in the assay on OVCAR-3; 9.1 µM (inactive) in the assay with SK-MEL-5.
